In the experiment the target is T1, bacterial NAD synthetase enzyme (Bacillus subtilis, UniProt P08164).
T1 sequence (P08164 2-272 limits assumed): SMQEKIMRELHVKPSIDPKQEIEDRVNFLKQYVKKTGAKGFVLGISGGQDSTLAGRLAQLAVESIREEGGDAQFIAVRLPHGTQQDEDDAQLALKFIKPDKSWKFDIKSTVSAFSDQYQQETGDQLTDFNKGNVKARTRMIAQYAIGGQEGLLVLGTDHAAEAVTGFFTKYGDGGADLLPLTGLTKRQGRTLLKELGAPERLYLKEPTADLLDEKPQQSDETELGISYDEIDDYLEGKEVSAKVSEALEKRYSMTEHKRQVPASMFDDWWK
In words: biochemical. It counts as biochemical.

Where [1] appears, read: compound at 0.2 mM (Table 312A).
[2] abbreviates: compound at 0.2 mM (Table 312B).

Where two headings read alike, the source gives them in different places.

As for `O=[N+]([O-])c1cc([N+](=O)[O-])c2[nH]c(CCCCCC[n+]3ccc4ccccc4c3)cc2c1` [Compound 525], the % Inhibition (usually the change of the read-out against control, counted positive when it falls) under setting [1] is recorded as 8.39%.
With `C[n+]1cccc(C(=O)OCCCCCCCCOc2ccccc2C(=O)Nc2ccccc2)c1` [compound 3054], under setting [2], the “% Inhibition” value is 86%.
In the case of `C[n+]1cccc(CC(=O)OCCCCCCCCc2cc3ccc(C(F)(F)F)cc3[nH]2)c1` [Compound 930], the “% Inhibition” value (compound at 0.25 mM) amounted to 96.7%.
`C[N+](C)(C)c1ccc(CC(=O)OCCCCCCCn2ccc3ccccc32)cc1` [Compound 980]: under setting [1], the “% Inhibition” value amounted to 74.86%.
Consider `O=[N+]([O-])c1cc([N+](=O)[O-])c2[nH]c(CCC[n+]3ccc4ccccc4c3)cc2c1` [Compound 522], for which the “% Inhibition” value under setting [1] was found to be 35.74%.
Still for that read-out and setting: under `O=C(c1ccccc1)c1ccc2[nH]c(CCCCCCCC[n+]3ccc4ccccc4c3)cc2c1` [Compound 575] stands 42.01%; under `CC(=O)c1ccc2[nH]c(CCC[n+]3ccc4ccccc4c3)cc2c1` [Compound 582], 6.13%.
Take `C[n+]1cccc(C(=O)OCCCCCCCCOc2ccc([N+](=O)[O-])cc2)c1` [compound 1053]: the “% Inhibition” value under setting [2] turned out to be 72%.
With `O=C(O)c1ccc2[nH]c(CCC[n+]3ccc4ccccc4c3)cc2c1` [Compound 600], the “% Inhibition” value under setting [1] is 3.10%.
`CC(=O)c1ccc2[nH]c(CCC[n+]3cccc4ccccc43)cc2c1` [Compound 474]: under setting [1], the “% Inhibition” value is 2.45%.
On to `COC(=O)c1ccc2[nH]c(CCCC[n+]3ccc4ccccc4c3)cc2c1` [Compound 595], for which the “% Inhibition” value under setting [1] turned out to be 17.94%.
As to `C[N+](C)(C)c1cccc(C(=O)OCCCCCCCCc2cc3ccc(C(F)(F)F)cc3[nH]2)c1` [Compound 870], the “% Inhibition” value (compound at 0.25 mM) was 63.1%.
Turning to `c1ccc(-c2ccc3[nH]c(CCCCCCCC[n+]4ccccc4)cc3c2)cc1` [Compound 329], the “% Inhibition” value under setting [1] was determined as 30.77%.
Same read-out and setting: under `FC(F)(F)c1ccc2[nH]c(CCCCCCCC[n+]3ccc4ccccc4c3)cc2c1` [Compound 581] stands 21.66%; under `c1ccc(-c2ccc3[nH]c(CCCCCCC[n+]4ccc5ccccc5c4)cc3c2)cc1` [Compound 544], 19.66%.
For the molecule `C[n+]1cccc(C(=O)OCCCCCCCCOc2cccc([N+](=O)[O-])c2)c1` [Compound 1065], the IC50 (usually the concentration that gives 50% inhibition) is 37.5 µM and the inhibition (as a rule, the relative decrease from the control value, in per cent) at 200 µM worked out at 81%.
As to `CN(C)c1ccc(CC(=O)OCCCCCCCCOc2ccccc2C=CC(=O)c2ccccc2)cc1` [Compound 1038], under setting [2], the “% Inhibition” value is reported as 22%.
With `FC(F)(F)c1ccc2[nH]c(CCC[n+]3ccc4ccccc4c3)cc2c1` [Compound 576], under setting [1], the “% Inhibition” value was found to be 2.05%.
Take `COC(=O)c1cc2ccccc2n1CCCCCCCCOC(=O)c1ccc[n+](C)c1` [Compound 973]: 45 µM corresponded to half-maximal inhibition (IC50) and the inhibition at 100 µM worked out at 97.8%.
Regarding `COC(=O)c1ccc2[nH]c(CCCC[n+]3ccccc3)cc2c1` [Compound 379], under setting [1], the “% Inhibition” value is listed as 6.27%.
In the case of `CN(C)c1ccc(CC(=O)OCCCCCCCCOc2cccc(N3CCOCC3)c2)cc1` [Compound 1045], under setting [2], the “% Inhibition” value was 14%.
On the same count and under the same terms, the same measure for `C[N+](C)(C)c1ccc(CC(=O)OCCCCCCCCOc2ccc(C(=O)c3ccccc3)cc2)cc1` [Compound 1088]: 100%.
Consider `O=C(OCCCCCCn1ccc2ccccc21)c1cccnc1` [Compound 943], for which the “% Inhibition” value (compound at 0.1 mM (Table 314)) came out at 21.38%.
As for `C[N+](C)(C)c1ccc(C(=O)OCCCCc2cc3cc(C(=O)c4ccccc4)ccc3[nH]2)cc1` [Compound 895], the “% Inhibition” value (compound at 0.25 mM) amounted to 95.7%.
Take `COC(=O)c1ccc2[nH]c(CCCCCC[n+]3cccc4ccccc43)cc2c1` [Compound 489]: the “% Inhibition” value under setting [1] amounted to 5.87%.
Same read-out and setting: under `c1ccc(Oc2ccc3[nH]c(CCC[n+]4ccccc4)cc3c2)cc1` [Compound 348] stands 44.42%.
Molecule `COC(=O)c1cc2cc(OCc3ccccc3)ccc2n1CCCCCCOC(=O)c1ccc[n+](C)c1` [Compound 975] yielded an IC50 of 38 µM and an inhibition at 100 µM of 55.2%.
For the molecule `C[N+](C)(C)c1cccc(C(=O)OCCCCc2cc3cc(C(=O)c4ccccc4)ccc3[nH]2)c1` [Compound 880], where the note is “compound at 0.25 mM”, the “% Inhibition” value is listed as 96.7%.
Take `O=C(OCCCCCCCCOc1ccccc1N1CCCC1)c1cccnc1` [Compound 1019]: under setting [2], the “% Inhibition” value was determined as 3%.
Take `Cc1ccc2[nH]c(CCC[n+]3cccc4ccccc43)cc2c1` [Compound 402]: the “% Inhibition” value (compound at 0.1 mM (Table 314)) is 4.71%.
In the case of `O=[N+]([O-])c1cc([N+](=O)[O-])c2[nH]c(CCCCCCC[n+]3cccc4ccccc43)cc2c1` [Compound 418], the “% Inhibition” value under setting [1] is reported as 5.95%.
As for `COc1ccc2c(ccn2CCCCCOC(=O)Cc2ccc([N+](C)(C)C)cc2)c1` [Compound 741], the “% Inhibition” value under setting [1] is 30.47%.
As to `FC(F)(F)c1ccc2cc(CCCC[n+]3ccccc3)[nH]c2c1` [Compound 715], the “% Inhibition” value (compound at 0.1 mM (Table 314)) turned out to be 20.73%.
Same read-out and setting: the same measure for `COC(=O)c1cc2cc(OCc3ccccc3)ccc2n1CCCCCCCCOC(=O)Cc1ccc([N+](C)(C)C)cc1` [Compound 989]: 54.83%.
Regarding `C[N+](C)(C)c1cccc(C(=O)OCCCCCCCc2cc3ccc(C(F)(F)F)cc3[nH]2)c1` [Compound 869], the 50% inhibitory concentration (IC50) stood at 40 µM.
As to `O=C(c1ccccc1)c1ccc2[nH]c(CCCCCCC[n+]3ccccc3)cc2c1` [Compound 358], the “% Inhibition” value under setting [1] is given as 23.19%.
For `CC(=O)c1ccc(OCCCCCCCCOC(=O)c2ccc[n+](C)c2)cc1` [compound 1058], under setting [2], the “% Inhibition” value amounted to 18%.
As to `COC(=O)c1cc2cc(OCc3ccccc3)ccc2n1CCCCCCCOC(=O)c1ccc(CN(C)C)cc1` [Compound 1096], the concentration for half-maximal inhibition (IC50) (NAD synthetase enzyme inhibition, read-out: IC50 of Compounds) stood at 68.9 µM. Further, the “% Inhibition” value under setting [2] amounted to 140%.
In the case of `C[n+]1cccc(C(=O)OCCCOc2ccc(C(=O)c3ccccc3)cc2)c1` [Compound 1068], the IC50 came to 62.5 µM and the inhibition at 200 µM was determined as 92%.
Regarding `O=C(O)/C=C/c1cn(CCCC[n+]2cccc3ccccc32)c2ccccc12` [Compound 154], the “% Inhibition” value (compound at 0.1 mM (Table 314)) worked out at 9.24%.
Regarding `C[n+]1ccc(C(=O)OCCCCCCCCc2cc3cc(C(=O)c4ccccc4)ccc3[nH]2)cc1` [Compound 912], the “% Inhibition” value (compound at 0.25 mM) is on record as 27.6%.
Take `FC(F)(F)c1ccc2cc(CCCCCCCC[n+]3cccc4ccccc43)[nH]c2c1` [Compound 401]: the “% Inhibition” value under setting [1] is 14.26%.
As to `C[N+](C)(C)c1ccc(C(=O)OCCCCCCCc2cc3ccc(C(F)(F)F)cc3[nH]2)cc1` [Compound 884], the half-maximal inhibitory concentration (IC50) turned out to be 45 µM.
Consider `O=C(c1ccccc1)c1ccc2[nH]c(CCCCCCC[n+]3cccc4ccccc43)cc2c1` [Compound 466], for which, under setting [1], the “% Inhibition” value came to 5.79%.
With `O=[N+]([O-])c1ccc2[nH]c(CCC[n+]3ccccc3)cc2c1` [Compound 330], the “% Inhibition” value under setting [1] was 23.96%.
In the case of `O=[N+]([O-])c1cc([N+](=O)[O-])c2[nH]c(CCCCCCCC[n+]3cccc4ccccc43)cc2c1` [Compound 419], the “% Inhibition” value under setting [1] is 24.28%.
Regarding `COC(=O)C=Cc1cn(CCCCC[n+]2cccc(C(=O)OC)c2)c2ccccc12` [Compound 268], the “% Inhibition” value under setting [1] is 11.23%.
Regarding `c1ccc(-c2ccc3[nH]c(CCCCCCC[n+]4ccccc4)cc3c2)cc1` [Compound 328], the “% Inhibition” value (compound at 0.1 mM (Table 314)) was determined as 47.85%.
Consider `CC(=O)c1ccccc1OCCCCCCCCOC(=O)Cc1ccc([N+](C)(C)C)cc1` [Compound 1076], for which the midpoint of inhibition, the IC50, lay at 135 µM and testing at 200 µM gave an inhibition of 74%.
Regarding `c1ccc(Oc2ccc3[nH]c(CCCCCC[n+]4ccc5ccccc5c4)cc3c2)cc1` [Compound 567], under setting [1], the “% Inhibition” value stood at 22.51%.
For `CC(C)c1ccc2[nH]c(CCCCCCC[n+]3cccc4ccccc43)cc2c1` [Compound 430], the “% Inhibition” value under setting [1] came out at 1.20%.
Same read-out and setting: under `O=C(O)c1ccc2[nH]c(CCCC[n+]3ccccc3)cc2c1` [Compound 385] stands 61.62%; under `COc1ccc2c(ccn2CCCCCCOC(=O)c2ccc[n+](C)c2)c1` [Compound 762], 40.05%; under `Fc1cc(F)c2[nH]c(CCCCC[n+]3cccc4ccccc43)cc2c1` [Compound 410], 8.77%.
As for `CC(=O)c1cccc(OCCCCCCCCOC(=O)c2ccc[n+](C)c2)c1` [compound 1069], the “% Inhibition” value under setting [2] is 36%.
Take `C[n+]1cccc(C(=O)OCCCCc2cc3ccc(C(F)(F)F)cc3[nH]2)c1` [Compound 913]: the “% Inhibition” value (compound at 0.25 mM) is recorded as 7.6%.
For `O=C(c1ccccc1)c1ccc2[nH]c(CCCC[n+]3ccc4ccccc4c3)cc2c1` [Compound 571], the “% Inhibition” value under setting [1] amounted to 17.47%.
Regarding `c1cc[n+](CCCCCCCCc2cc3ccccc3[nH]2)cc1` [Compound 287], under setting [1], the “% Inhibition” value was 16.01%.
In the case of `COc1ccccc1OCCCCCCCCOC(=O)c1cccnc1` [Compound 1012], the “% Inhibition” value under setting [2] is listed as 2%.
As to `COC(=O)c1cc2cc(OCc3ccccc3)ccc2n1CCCCCCCCOC(=O)Cc1ccc(N(C)C)cc1` [Compound 965], the “% Inhibition” value (compound at 0.1 mM (Table 314)) was determined as 8.48%.
With `FC(F)(F)c1ccc2[nH]c(CCC[n+]3ccccc3)cc2c1` [Compound 360], the “% Inhibition” value under setting [1] came out at 3.46%.
For the molecule `C[n+]1ccc(C(=O)OCCCCc2cc3cc(C(=O)c4ccccc4)ccc3[nH]2)cc1` [Compound 910], where the note is “compound at 0.25 mM”, the “% Inhibition” value was 88.5%.
In the case of `O=[N+]([O-])c1ccc2[nH]c(CCCC[n+]3ccccc3)cc2c1` [Compound 712], the “% Inhibition” value under setting [1] is on record as 12.59%.
Turning to `CC(=O)c1cccc(OCCCCCCCCOC(=O)Cc2ccc([N+](C)(C)C)cc2)c1` [Compound 1089], the “% Inhibition” value under setting [2] is on record as 56%.
As for `O=C(O)c1ccc2[nH]c(CCCC[n+]3cccc4ccccc43)cc2c1` [Compound 493], the “% Inhibition” value under setting [1] was found to be 9.12%.

(Values after patent publication US6727237B2, “Inhibitors of bacterial NAD synthetase” (priority 1998, dated 2004).)
